This note sets out measurements from patent US11083743B2, “DNA hypomethylating agents for cancer therapy” (priority 2013, dated 2021).

For one experiment, the system named is MHC class I antigens. The experiment is described as follows: MHC class I antigen expression on tumours of treated mice. The class given is in vivo.
In experiment [1] the test system is murine CTA (P1A, Mage-a family). The experiment is described as follows: RT-PCR analysis of murine CTA expression in excised tumor tissues. The conditions noted are these: FIG. 4, tumors excised one week after end of first cycle. The class given is in vivo. How it is done: Mice were sc injected in the flank region with TS/A cells (2×10^5) resuspended in 0.1 ml of physiologic saline. […] Control mice were ip injected with 0.2 ml of saline solution. Animals were weekly monitored for changes in the tumor size or sacrificed by CO2 overdose; for the latter, tumor tissues were surgically removed, and each specimen, divided under sterile conditions, were snap-frozen in liquid nitrogen and stored at -80° C. until used for RNA and DNA extraction. RNA and DNA were extracted from tissues sections, removed from control and treated mice one week after the end of the first cycle treatment (day 8) and homogenized with the aid of Tissue Lyser II (QIAGEN) in Trizol reagent or lysis buffer, respectively. Total RNA was extracted following the manufacturer's instructions and stored at -80° C. Total genomic DNA was extracted by digestion with 100 μg/ml proteinase K in the presence of 0.5% SDS at 50° C. overnight, followed by phenol/chloroform extraction and ethanol precipitation. Genomic DNA was eluted in TE buffer and stored at -20° C. RT-PCR reactions were performed using oligonucleotide primer sequences and PCR amplification programs specific for […] and Mage-a family (Coral S, Covre A et al, Br J Cancer. 2012 Sep. 25; 107(7):1116-24). […]

The test system of a further experiment is P1A promoter. The experiment is described as follows: qMSP analysis of P1A promoter methylation in excised tumor tissues. Type of experiment: in vivo, murine. The following applies: FIG. 3; tumors excised one week after end of first cycle (day 8). How it is done: Mice were sc injected in the flank region with TS/A cells (2×10^5) resuspended in 0.1 ml of physiologic saline. […] Control mice were ip injected with 0.2 ml of saline solution. Animals were weekly monitored for changes in the tumor size or sacrificed by CO2 overdose; for the latter, tumor tissues were surgically removed, and each specimen, divided under sterile conditions, were snap-frozen in liquid nitrogen and stored at -80° C. until used for RNA and DNA extraction. RNA and DNA were extracted from tissues sections, removed from control and treated mice one week after the end of the first cycle treatment (day 8) and homogenized with the aid of Tissue Lyser II (QIAGEN) in Trizol reagent or lysis buffer, respectively. Total RNA was extracted following the manufacturer's instructions and stored at -80° C. Total genomic DNA was extracted by digestion with 100 μg/ml proteinase K in the presence of 0.5% SDS at 50° C. overnight, followed by phenol/chloroform extraction and ethanol precipitation. Genomic DNA was eluted in TE buffer and stored at -20° C. […] Primers for the analysis of the methylation status of […], designed using the free on-line software MethPrimer (Li L C and […] Bioinformatics 2002; 18:1427-31), were: […] (Methylated), forward [NT] ID No. 5), reverse [NT] ID No. 6); […] (Unmethylated), forward [NT] ID No. 7), reverse [NT] ID No. 8). […]

The test system of the next experiment is P1A. The experiment is described as follows: Real-time quantitative RT-PCR of P1A expression in excised tumor tissues. Type of experiment: in vivo, murine. The following applies: FIG. 5; normalized to β-actin. How it is done: Mice were sc injected in the flank region with TS/A cells (2×10^5) resuspended in 0.1 ml of physiologic saline. […] Control mice were ip injected with 0.2 ml of saline solution. Animals were weekly monitored for changes in the tumor size or sacrificed by CO2 overdose; for the latter, tumor tissues were surgically removed, and each specimen, divided under sterile conditions, were snap-frozen in liquid nitrogen and stored at -80° C. until used for RNA and DNA extraction. RNA and DNA were extracted from tissues sections, removed from control and treated mice one week after the end of the first cycle treatment (day 8) and homogenized with the aid of Tissue Lyser II (QIAGEN) in Trizol reagent or lysis buffer, respectively. Total RNA was extracted following the manufacturer's instructions and stored at -80° C. […] Real-time quantitative RT-PCR analyses were performed as previously described (Calabro L, et al., J Cell Physiol 2005; 202:474-7) Briefly, total RNA was digested with RNAse-free DNAse (Roche Diagnostics), to remove contaminating genomic DNA. […] Measurement of gene expression was performed utilizing the ABI prism 7000 Sequence Detection System (Applied Biosystems), as previously described (Calabro L, et al., J Cell Physiol 2005; 202:474-7). cDNA standards were obtained by RT-PCR amplification of the specific mRNAs and quantitated by NanoDrop® ND-1000 UV-Vis Spectrophotometer. […]

Experiment [2] has as its system TS/A cells. Briefly: Anti-tumor activity on TS/A tumor grafts in SCID/Beige mice. Type of experiment: in vivo. The conditions noted are these: FIG. 6B, first cycle only. How it is done:
(§1) Six-week-old female BALB/c, athymic nude and SCID/Beige mice were obtained from Harlan laboratories (Udine, Italy). Animal care and use were in accordance with Institutional guidelines and the indications of Workman et al. (Workman P, et al. Br J Cancer. 2010 May 25; 102(11): 1555-1577).
(§2) Mice were sc injected in the flank region with TS/A cells (2×10^5) resuspended in 0.1 ml of physiologic saline. Animals were examined daily and after a latency period of 1 week, mice bearing clearly palpable and visible tumor grafts (diameter≥0.2 cm) were ip injected with 0.2 ml/injection of i) 15 mg/kg/day of 5-AZA-CdR, three times a day every three hours on days 0 and 7 and on days 42 and 49 for the 2nd cycle of treatment; ii) 100 μg/mouse of anti-CTLA-4 mAb, on days 2, 5 and 8 and on days 44, 47 and 50 for the 2nd cycle of treatment; iii) 100 μg/mouse of anti-PDL-1 mAb on days 2, 5 and 8; iv) combined administration of 5-AZA-CdR and anti-CTLA-4 mAb according to the above reported schedules or; v) combined administration of 5-AZA-CdR and anti-PDL-1 mAb according to the above reported schedules. […] Animals were weekly monitored for changes in the tumor size or sacrificed by CO2 overdose; for the latter, tumor tissues were surgically removed, and each specimen, divided under sterile conditions, were snap-frozen in liquid nitrogen and stored at −80° C. until used for RNA and DNA extraction.

The next experiment concerns tumour. The experiment is described as follows: Histology and immunohistochemistry of surgically-excised tumors from treated mice. The class given is in vivo.
In experiment [3] the test system is TS/A cells. Briefly: Anti-tumor activity on TS/A tumor grafts in T cell-deficient athymic nude mice. The class given is in vivo. The conditions noted are these: FIG. 6A, first cycle only. How it is done:
as §1, §2

Experiment [4] has as its system TS/A cells. The experiment is described as follows: Anti-tumor activity on TS/A tumor grafts in syngeneic BALB/c mice (caliper tumor volume). The class given is in vivo. The conditions noted are these: FIG. 1. How it is done: Primary cultures of murine mammary carcinoma cells TS/A were grown in DMEM Medium supplemented with 10% heat-inactivated FCS (Lonza), 2 mM L-glutamine (Biochrom AG) and 50 μM β-mercaptoethanol. Six-week-old female BALB/c, athymic nude and SCID/Beige mice were obtained from Harlan laboratories (Udine, Italy). Animal care and use were in accordance with Institutional guidelines and the indications of Workman et al. (Workman P, et al. Br J Cancer. 2010 May 25; 102(11): 1555-1577). Mice were sc injected in the flank region with TS/A cells (2×10^5) resuspended in 0.1 ml of physiologic saline. […] Control mice were ip injected with 0.2 ml of saline solution. Animals were weekly monitored for changes in the tumor size or sacrificed by CO2 overdose; for the latter, tumor tissues were surgically removed, and each specimen, divided under sterile conditions, were snap-frozen in liquid nitrogen and stored at −80° C. until used for RNA and DNA extraction. In vivo tolerability was evaluated by measurements of body weight and mortality rate. The antiproliferative activity of the drug was evaluated by caliper measurements of tumor mass. Body weight and tumor size measurements were recorded periodically, all along the treatment. Tumor volumes (TV) were calculated as follows: TV=LD^2/2 (in which L is the longest diameter and D the shortest one).

Regarding `Nc1ncn([C@H]2C[C@H](O)[C@@H](CO)O2)c(=O)n1` [5-AZA-CdR, 5-aza-2′-deoxycytidine], the “constitutive expression of MHC class I antigens on tumours” value in the experiment with MHC class I antigens is on record as “increases”. Moreover, in experiment [1], the “expression of P1A and Mage-a members in tumor tissues” value is “strong de novo expression”. In the experiment on P1A promoter, the “constitutive methylation levels of P1A promoter in cancer tissues vs control mice” value was “significant (p<0.05) reduction”. For the same compound, in the experiment with P1A, the “levels of P1A-specific mRNA expression, 5-AZA-CdR alone compared with combination” value was “similar”. In addition, the tumor growth entry in the experiment with TS/A cells [2] was “significantly (p<0.05 and p<0.01) reduced tumor growth”; in the experiment with TS/A cells [3] it was “significantly (p<0.05 and p<0.01) reduced tumor growth”. Moreover, in the experiment on tumour, the “lymphocyte infiltration into the tumour” value is “neither induces lymphocyte infiltration”. Further, the tumour necrosis entry in the experiment on tumour is reported as “does not induce tumour necrosis”. In addition, the tumor growth inhibition came to 40.7% in the experiment with TS/A cells [4] (day 15, vs control mice) and 67.6% with TS/A cells [4] (day 35, vs control mice).
